{"source": "paper PMC11748363", "about": "“Antimicrobial and Antiproliferative Properties of 2‐Phenyl‐N‐(Pyridin‐2‐yl)acetamides” (Chemical Biology & Drug Design, 2025)", "key": {"[1]": {"tested_on": "Mycolicibacterium aurum DSM 43999", "assay": "Antimycobacterial microdilution broth MIC (resazurin), M. aurum", "format": "cell-based", "details": "DSM43999, read-out: MIC M. aurum"}, "[2]": {"tested_on": "Enterococcus faecalis CCM 4224, ATCC 29212", "assay": "Antibacterial microdilution broth MIC, EF", "format": "cell-based"}, "HepG2 cell line": {"tested_on": "HepG2 cell line", "assay": "Cytotoxicity CellTiter 96, HepG2", "format": "cell-based, human", "details": "Homo sapiens, HepG2, 24 h, 24 h incubation; ^c compound precipitated in the testing medium; ^d over the limit of tested concentrations", "method": "The cytotoxicity of final compounds was determined in human hepatocellular carcinoma cell line HepG2.\nCytotoxicity determination\nHuman hepatocellular liver carcinoma cell line HepG2 purchased from Health Protection Agency Culture Collections (ECACC, Salisbury, UK) was cultured in MEM (Minimum Essentials Eagle Medium, Sigma–Aldrich) supplemented with 10% fetal bovine serum (PAA Laboratories, Pasching, Austria), 1% L-glutamine solution (Sigma–Aldrich) and non-essential amino acid solution (Sigma–Aldrich) in a humidified atmosphere containing 5% CO2 at 37 °C. For subculturing, the cells were harvested after trypsin/EDTA (Sigma–Aldrich) treatment at 37 °C. To evaluate cytotoxicity, the cells treated with the tested substances were used as experimental groups whereas untreated HepG2 cells served as controls. The cells were seeded in density 10,000 cells per well in a 96 well plate. The next day the cells were treated with each of the tested substances dissolved in DMSO. The tested substances were\nin triplicates according to their solubility. Simultaneously, the controls representing 100% cell viability, 0% cell viability (the cells treated with 10% DMSO), no cell control and vehiculum controls were also\nthe reagent from the kit CellTiter 96 AQueous One Solution Cell Proliferation Assay (CellTiter 96; PROMEGA, Fitchburg, USA) was added. After 2h incubation at 37 °C, absorbance of samples was recorded at 490 nm (TECAN, Infinita M200, Austria). A standard toxicological parameter IC50 was calculated by nonlinear regression from a semilogarithmic plot of incubation concentration versus percentage of absorbance relative to untre ated controls using GraphPad Prism 8 software."}, "[3]": {"tested_on": "Trichophyton interdigitale CCM 8377, ATCC 9533", "assay": "Antifungal microdilution broth MIC, TI", "details": "Trichophyton interdigitale"}, "[4]": {"tested_on": "Candida krusei CCM 8271, ATCC 6258", "assay": "Antifungal microdilution broth MIC, CK", "details": "Pichia kudriavzevii"}, "[5]": {"tested_on": "Escherichia coli CCM 3954, ATCC 25922", "assay": "Antibacterial microdilution broth MIC, EC", "format": "cell-based"}, "[6]": {"tested_on": "Staphylococcus aureus CCM 4223, ATCC 29213", "assay": "Antibacterial microdilution broth MIC, SA", "format": "cell-based", "details": "Staphylococcus aureus"}, "[7]": {"tested_on": "Candida albicans CCM 8320, ATCC 24433", "assay": "Antifungal microdilution broth MIC, CA"}, "[8]": {"tested_on": "Pseudomonas aeruginosa CCM 3955, ATCC 27853", "assay": "Antibacterial microdilution broth MIC, PA", "format": "cell-based"}, "[9]": {"tested_on": "Klebsiella pneumoniae CCM 4415, ATCC 10031", "assay": "Antibacterial microdilution broth MIC, KP"}, "[10]": {"tested_on": "M. kansasii CNCTC My 235/80", "assay": "Microplate Alamar Blue Assay MIC, M. kansasii", "format": "cell-based"}, "[11]": {"tested_on": "Aspergillus fumigatus ATCC 204305", "assay": "Antifungal microdilution broth MIC, AF"}, "[12]": {"tested_on": "Candida tropicalis CCM 8264, ATCC 750", "assay": "Antifungal microdilution broth MIC, CT"}, "panel of bacteria": {"tested_on": "panel of bacteria", "assay": "Antibacterial screening, whole panel", "format": "cell-based", "details": "whole bacterial panel"}, "[13]": {"tested_on": "Staphylococcus aureus subsp. aureus CCM 4750, ATCC 43300 (MRSA)", "assay": "Antibacterial microdilution broth MIC, MRSA", "format": "cell-based", "details": "Staphylococcus aureus"}, "[14]": {"tested_on": "M. avium ssp. avium CNCTC My 80/72", "assay": "Microplate Alamar Blue Assay MIC, M. avium", "format": "cell-based"}, "panel of fungi": {"tested_on": "panel of fungi", "assay": "Antifungal screening, whole panel", "format": "cell-based", "details": "whole fungal panel", "experimental": "The antifungal activity was evaluated by\nspectrophotometric visual detection** spectrophotometric detection**\nCandida tropicalis 1 1 2 >16\nAspergillus fumigatus 4 4 0.25 1\nAspergillus flavus CCM 4 4 2 >16\ninterdigitale CCM 1 1 1 >16\ncontrol. […] Measured on a […]"}, "[15]": {"tested_on": "Mycolicibacterium smegmatis DSM 43465", "assay": "Antimycobacterial microdilution broth MIC (resazurin), M. smegmatis", "format": "cell-based", "details": "DSM43465, read-out: MIC M. smegmatis"}, "[16]": {"tested_on": "Lichtheimia corymbifera CCM 8077", "assay": "Antifungal microdilution broth MIC, LC"}, "[17]": {"tested_on": "Mycobacterium tuberculosis H37Ra", "assay": "Antimycobacterial microdilution broth MIC (resazurin), Mtb H37Ra", "format": "cell-based", "details": "for MIC: Mycobacterium tuberculosis, H37RA, read-out: MIC Mtb H37Ra"}, "[18]": {"tested_on": "Acinetobacter baumannii DSM 30007, ATCC 19606", "assay": "Antibacterial microdilution broth MIC, ACI", "format": "cell-based"}, "[19]": {"tested_on": "Aspergillus flavus CCM 8363", "assay": "Antifungal microdilution broth MIC, AFla"}, "[20]": {"tested_on": "Mycobacterium tuberculosis H37Rv", "assay": "Microplate Alamar Blue Assay MIC, Mtb H37Rv", "format": "cell-based"}, "[21]": {"tested_on": "Candida parapsilosis CCM 8260, ATCC 22019", "assay": "Antifungal microdilution broth MIC, CP", "details": "Lodderomyces parapsilosis"}, "[22]": {"tested_on": "Staphylococcus epidermidis CCM 4418, ATCC 12228", "assay": "Antibacterial microdilution broth MIC, SE", "format": "cell-based"}}, "note": "Like-named read-outs stand apart in the source and are kept apart here."}
{"smiles": "O=C(Cc1ccc(C(F)(F)F)cc1)Nc1cccc(Cl)n1", "note": "[Compound 30]", "values": [{"measurement": "MIC", "setting": "[1]", "value": "> 500", "unit": "µg/mL"}, {"measurement": "MIC", "setting": "[2]; 24 h, read-out: MIC EF 24h", "value": "> 500", "unit": "µM"}, {"measurement": "MIC", "setting": "[2]; 48 h, read-out: MIC EF 48h", "value": "> 500", "unit": "µM"}, {"measurement": "IC50", "setting": "HepG2 cell line", "value": 92.6, "unit": "µM"}, {"measurement": "MIC", "setting": "[3]; 72 h, read-out: MIC TI 72h", "value": 500, "unit": "µM"}, {"measurement": "MIC", "setting": "[3]; 120 h, read-out: MIC TI 120h", "value": 500, "unit": "µM"}, {"measurement": "MIC", "setting": "[4]; 24 h, read-out: MIC CK 24h", "value": "> 500", "unit": "µM"}, {"measurement": "MIC", "setting": "[4]; 48 h, read-out: MIC CK 48h", "value": "> 500", "unit": "µM"}, {"measurement": "MIC", "setting": "[5]; 24 h, read-out: MIC EC 24h", "value": "> 500", "unit": "µM"}, {"measurement": "MIC", "setting": "[5]; 48 h, read-out: MIC EC 48h", "value": "> 500", "unit": "µM"}, {"measurement": "MIC", "setting": "[6]; 24 h, read-out: MIC SA 24h", "value": "> 500", "unit": "µM"}, {"measurement": "MIC", "setting": "[6]; 48 h, read-out: MIC SA 48h", "value": "> 500", "unit": "µM"}, {"measurement": "MIC", "setting": "[7]; 24 h, read-out: MIC CA 24h", "value": "> 500", "unit": "µM"}, {"measurement": "MIC", "setting": "[7]; 48 h, read-out: MIC CA 48h", "value": "> 500", "unit": "µM"}, {"measurement": "MIC", "setting": "[8]; 24 h, read-out: MIC PA 24h", "value": "> 500", "unit": "µM"}, {"measurement": "MIC", "setting": "[8]; 48 h, read-out: MIC PA 48h", "value": "> 500", "unit": "µM"}, {"measurement": "MIC KP 24h", "setting": "[9]; 24h", "value": "> 500", "unit": "µM"}, {"measurement": "MIC KP 48h", "setting": "[9]; 48h", "value": "> 500", "unit": "µM"}, {"measurement": "MIC", "setting": "[10]; Mycobacterium kansasii", "value": "> 100", "unit": "µg/mL"}, {"measurement": "MIC", "setting": "[11]; ATCC204305, 24 h, read-out: MIC AF 24h", "value": "> 500", "unit": "µM"}, {"measurement": "MIC", "setting": "[11]; ATCC204305, 48 h, read-out: MIC AF 48h", "value": "> 500", "unit": "µM"}, {"measurement": "MIC", "setting": "[12]; 24 h, read-out: MIC CT 24h", "value": "> 500", "unit": "µM"}, {"measurement": "MIC", "setting": "[12]; 48 h, read-out: MIC CT 48h", "value": "> 500", "unit": "µM"}, {"measurement": "Antibacterial activity", "setting": "panel of bacteria", "value": "None"}, {"measurement": "MIC", "setting": "[13]; 24 h, read-out: MIC MRSA 24h", "value": "> 500", "unit": "µM"}, {"measurement": "MIC", "setting": "[13]; 48 h, read-out: MIC MRSA 48h", "value": "> 500", "unit": "µM"}, {"measurement": "MIC M. avium", "setting": "[14]", "value": "active"}, {"measurement": "MIC", "setting": "[14]; Mycobacterium avium", "value": 6.25, "unit": "µg/mL"}, {"measurement": "Antifungal activity", "setting": "panel of fungi", "value": "None"}, {"measurement": "MIC", "setting": "[15]", "value": "> 500", "unit": "µg/mL"}, {"measurement": "MIC", "setting": "[16]; CCM8077, 24 h, read-out: MIC LC 24h", "value": "> 500", "unit": "µM"}, {"measurement": "MIC", "setting": "[16]; CCM8077, 48 h, read-out: MIC LC 48h", "value": "> 500", "unit": "µM"}, {"measurement": "MIC", "setting": "[17]; Calculated from MIC (μg/mL)", "value": 24.8, "unit": "µM"}, {"measurement": "MIC", "setting": "[17]", "value": 7.81, "unit": "µg/mL"}, {"measurement": "SI (selectivity index)", "setting": "[17]; SI = HepG2 IC50 (μM)/MIC MtbH37Ra (μM), calculated for compounds with MIC ≤ 31.25 μg/mL", "value": 3.7}, {"measurement": "MIC", "setting": "[18]; 24 h, read-out: MIC ACI 24h", "value": "> 500", "unit": "µM"}, {"measurement": "MIC", "setting": "[18]; 48 h, read-out: MIC ACI 48h", "value": "> 500", "unit": "µM"}, {"measurement": "MIC", "setting": "[19]; CCM8363, 24 h, read-out: MIC AFla 24h", "value": "> 500", "unit": "µM"}, {"measurement": "MIC", "setting": "[19]; CCM8363, 48 h, read-out: MIC AFla 48h", "value": "> 500", "unit": "µM"}, {"measurement": "MIC", "setting": "[20]; Mycobacterium tuberculosis, H37RV", "value": 6.25, "unit": "µg/mL"}, {"measurement": "MIC", "setting": "[21]; 24 h, read-out: MIC CP 24h", "value": "> 500", "unit": "µM"}, {"measurement": "MIC", "setting": "[21]; 48 h, read-out: MIC CP 48h", "value": "> 500", "unit": "µM"}, {"measurement": "MIC", "setting": "[22]; 24 h, read-out: MIC SE 24h", "value": "> 500", "unit": "µM"}, {"measurement": "MIC", "setting": "[22]; 48 h, read-out: MIC SE 48h", "value": "> 500", "unit": "µM"}]}
{"smiles": "NNC(=O)c1ccncc1", "note": "[INH, isoniazid, reference compound]", "values": [{"measurement": "MIC", "setting": "[1]", "value": "3.91 to 7.81", "unit": "µg/mL"}, {"measurement": "MIC M. kansasii", "setting": "[10]", "value": "3.13 to 12.5", "unit": "µg/mL"}, {"measurement": "MIC M. avium", "setting": "[14]", "value": "6.25 to 12.5", "unit": "µg/mL"}, {"measurement": "MIC", "setting": "[15]", "value": "7.81 to 15.6", "unit": "µg/mL"}, {"measurement": "MIC", "setting": "[17]; Calculated from MIC (μg/mL)", "value": "0.9 to 1.8", "unit": "µM"}, {"measurement": "MIC", "setting": "[17]", "value": "0.125 to 0.25", "unit": "µg/mL"}, {"measurement": "MIC Mtb H37Rv", "setting": "[20]", "value": "0.1 to 0.2", "unit": "µg/mL"}]}
